Test results taken from patent publication US7094869B2, “Low molecular weight peptidomimetic growth hormone secretagogues” (Genentech, Inc., priority 1994, dated 2006).
Where two headings read alike, the source gives them in different places. Non-standard residues stand in square brackets, D forms with d. Residues, ends and D or L forms follow the SMILES beside them. ξ: configuration not given here. dNMe2Nal = CN[C@H](Cc1ccc2ccccc2c1)C(=O)O; d2Nal = N[C@H](Cc1ccc2ccccc2c1)C(=O)O; ξNMe2Nal = CNC(Cc1ccc2ccccc2c1)C(=O)O; β3hF = N[C@H](CC(=O)O)Cc1ccccc1; Inp = O=C(O)C1CCNCC1; ξK = NCCCCC(N)C(=O)O; Ava = NCCCCC(=O)O

Key:
[1] = target: T1, rat pituitary cells (Rattus norvegicus, UniProt O08725)
How it was run: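 Primary rat anterior pituitary cells, cultured three days in DME low glucose/10% FBS, were washed, pre-incubated twice for 15 min, then challenged 15 min with test compounds (DMSO ≤0.1%) at 37 °C. Released GH was measured by two-site ELISA; EC50 came from 4-parameter fits, mean of three to four independent determinations.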

[2] = target: T1, rat pituitary cells; experiment: Rat “pit” cell challenges: combinations with GHRP-6/GHRH, desensitization, somatostatin suppression, GHRP antagonist; type: cell-based; conditions: for GH response compared with control / GH release after sequential 15 min incubations with fresh compound (desensitization): 100 nM; for GH release in combination with GHRH: GHRP 100 nM plus GHRH 10 or 100 nM; for GH release in combination with GHRP-6: both at 100 nM; for GH release in the presence of 20 nM somatostatin: coincubation with 20 nM somatostatin; for GH release after sequential 15 min incubations with fresh compound (desensitization): three sequential 15 min incubations
Experimental: Dispersion: Adult female Sprague-Dawley (160-180 g., Charles River) rats were group-caged in a 12:12 light:dark cycle with food and water available ad libitum. Pituitaries from ten rats were removed, the posterior pituitary discarded and the anterior pituitary placed in Hanks' Balanced Salt Solution (HBSS: without calcium chloride, w/o magnesium chloride, w/o magnesium sulfate; Gibco) containing 20 mM HEPES (Gibco) and 100 U/ml penicillin streptomycin (PS: JRH Biosciences). Under sterile conditions, pituitaries were rinsed twice then minced into small fragments with a razor blade. Fragments were resuspended in 5 ml of HBSS/HEPES containing 20 mg collagenase (Serva 17449) and 200 ml of 1 mg/ml DNase (Sigma) for a 40 min. incubation in a 37° C. gyrotory water bath shaker (New Brunswick Scientific Model G76; setting 10). After the incubation, fragments were triturated to yield small clumps and single cells. The cells were centrifuged 1000× g for 5 min, resuspended, counted and plated at a final cell concentration of 100,000 cells/ml. Incubation media was DME low glucose media w/NaHCO3 (Gibco) containing 20 mM hepes, 100 U/ml PS and 10% FBS (Hyclone A-111-L). Cells were plated at 0.5 ml per well in 48 well plates (Falcon) and incubated at 37° C. in 5% C02 for three days. […] The highest concentration of DMSO in media was 0.1%. Stock solutions (1 mM) of rat GHRH, somatostatin (Sigma) and GHRP antagonist HwkWfK were made fresh in media and diluted appropriately. The media used in all challenges and washing steps was DME low glucose with 20 mM Hepes, 100 U/ml PS, 10% FBS. Media was warmed to 37° C. and gassed by placing it into the incubator prior to challenge. On day three, the media was discarded and fresh media (approximately 1 ml) added for the first of three washes. After the last wash, the plate was placed back in the incubator for a 15 min pre-incubation. Then cells were washed 2× (with warmed and gassed media) and fresh 0.5 ml media were added for the second 15 min. pre-incubation. After the second pre-incubation cells were washed 2× as above and 0.5 ml of control and test solutions were added for a final 15 min incubation. After this incubation, the media were removed for subsequent GH ELISA. GH ELISA: A two-site ELISA was used to determine rat GH concentration in the media. Briefly, goat anti-rat GH antibody (lot#19164-20) was used to coat Nunc immunoplates overnight. After blocking and washing, standard (rat GH reference preparation: Parlow) and challenge media is diluted 1:20 prior to GH assay were added for a 1 hr room temperature incubation. STATISTICS: The mean for each group was determined and analyzed by one-way analysis of variance with a post-hoc Student-Newman-Keuls. Significance is defined as P<0.05. The EC50 was calculated using a 4-parameter curve-fit program (Kaleidagraph). Three to four independent EC50s were used to derive the mean and SEM.

[3] = test system: growth hormone secretion; experiment: GHRP induced growth hormone secretion, intravenous administration (Rat IV); type: in vivo; conditions: serum GH 10 min after injection; for RAT IV ED50: iv injection
How it was run: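 Female Sprague Dawley rats (24-30 days, 50-90 g) under intraperitoneal pentobarbitone received graded intravenous tail-vein peptide doses in pH 5.0 sodium acetate/mannitol buffer 20 min post-anaesthesia. Blood by cardiac puncture 10 min after dosing; serum GH measured by rat GH ELISA in duplicate.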

[4] = Combination GHRP and IGF-1 treatment of normal rats (7 days); type: in vivo, rat; conditions: for body weight gain (in words): 7 days, twice daily sc injections, normal adult female rats, GHRH 300, GHRPs 50, L-692,585 150 μg/dose
Experimental: The rats were weighed on the day of surgery and randomized into 12 groups of 5/group using a grouping program.
The GH secretagogues were given by sc. injection twice daily, each dose of 100 μl. […] Recombinant human IGF-1 (rhIGF-1) at 2.5 mg/ml in acetate buffer was loaded into osmotic minipumps (Alza, Palo Alto, model 2ML1, pump rate 10.16 μl/hr for 7 days, fill volume 2086 μl). Other pumps were filled with acetate buffer. […] The delivered dose of rhIGF-1 was therefore 610 μg/day.
The next day the osmotic pumps were inserted into rats. […] All rats not receiving rhIGF-1 containing pumps were implanted with pumps delivering the acetate buffer excipient. […] The treatment groups were;
The rats were sacrificed using carbon dioxide, bled from the heart and organs taken. Serum chemistries were measured by standard automated procedures.

[5] = Combination GHRP and IGF-1 treatment of obese Zucker Diabetic Fatty (ZDF) rats; type: in vivo, rat; conditions: for body weight gain: obese ZDF male rats, rhGH 500 μg/d
Experimental: Ten lean ZDF rats served as an additional control group.
This GHRP was given by sc. injection twice daily, each dose of 100 μl therefore containing 50 μg/injection or 100 μg/day.
Recombinant human IGF-1 (rhIGF-1) at 13.8 mg/ml in acetate buffer was loaded into osmotic minipumps (Alza, Palo Alto, model 2ML4, pump rate 2.29 μl/hr for 28 days, fill volume 2064 μl). Other pumps were filled with acetate buffer. […] The delivered dose of rhIGF-1 was therefore 758 μg/day. Recombinant human growth hormone (rhGH, Lot R9092AX, Genentech Inc.) was diluted in sterile water to 2.5 g/l and a 100 μl injection given twice daily (250 μg/injection, or 500 μg/day).
The next day the osmotic pumps were inserted into rats. […] All rats not receiving rhIGF-1 containing pumps were implanted with pumps delivering the acetate buffer excipient.
On day 24 blood was withdrawn after a 4 hour fast and 1.5 U/kg of regular insulin was injected i.p. and a second blood sample taken 30 minutes later. The rats were then sacrificed using carbon dioxide, bled from the heart, and organs taken. Serum glucose was measured by standard automated procedures.
Data are presented as mean±standard error (SE) of the mean with 8 rats per group.

[6] = GHRP induced dose dependent weight gain in rats (sc minipump infusion, 14 days); type: in vivo, rat
Experimental: Rat GHRH (1-43) was dissolved in the same buffer at 25 g/l.
The next day these osmotic pumps were inserted into rats.
Serum chemistries were measured by standard automated procedures.

[7] = read-out: EC50 of the representative GH dose response, single representative experiment, 15 min exposure
[8] = read-out: mean EC50, mean ± SE of independent EC50s
[9] = read-out: PIT Cell EC50, Table IV, formula III compounds, GH release, 15 min incubation
[10] = Day 2, GHRP 100 μg/d sc injection, rhIGF-1 758 μg/d pump
[11] = high dose (inip) b b F K-NH2 100 μg/day, GHRH 600 μg/day, 14 d infusion
[12] = read-out: PIT Cell EC50, Table III, formula IV compounds, GH release, 15 min incubation

T1 sequence (O08725 whole entry): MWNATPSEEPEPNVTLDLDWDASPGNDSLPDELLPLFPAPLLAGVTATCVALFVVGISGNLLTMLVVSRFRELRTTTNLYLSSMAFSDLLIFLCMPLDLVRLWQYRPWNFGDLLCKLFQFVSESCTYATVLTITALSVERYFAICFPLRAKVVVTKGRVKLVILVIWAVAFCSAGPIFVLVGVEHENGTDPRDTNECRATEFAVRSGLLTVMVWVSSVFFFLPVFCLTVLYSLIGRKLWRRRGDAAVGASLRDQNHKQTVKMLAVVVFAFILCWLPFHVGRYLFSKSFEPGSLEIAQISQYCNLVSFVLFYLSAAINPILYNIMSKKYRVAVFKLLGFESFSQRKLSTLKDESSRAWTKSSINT

## NC(=O)CN(CCc1ccccc1)C(=O)[C@@H](Cc1ccc2ccccc2c1)NC(=O)[C@@H](Cc1ccc2ccccc2c1)NC(=O)C1CCNCC1 [(inip) b b feg amide, (inip)-DβNal-DβNal-(N-2-phenylethyl-Gly) amide]
[1]; ratio of pit cell EC50s
  fold more potent than GHRP-6: ~25 fold
[1]; [7]
  EC50: 0.09 nM
[1]; [8]
  EC50: 0.25 ± 0.19 nM
[2]
  GH response compared with control: significantly greater than control
  GH release in combination with GHRH: synergistic
  GH release in combination with GHRP-6: not synergistic
  GH release in the presence of 20 nM somatostatin: totally suppressed
  GH release after sequential 15 min incubations with fresh compound (desensitization): markedly decreased
[3]; Table IV
  RAT IV ED50: 1 µg

## CN(C(=O)[C@@H](Cc1ccc2ccccc2c1)NC(=O)C1CCNCC1)[C@H](Cc1ccc2ccccc2c1)C(=O)NCCCCN [(inip) b nmb bam, (inip)-DβNal-(N-Me-DβNal)-[N-(4-aminobutyl)] amide]
[1]; [9]
  EC50: 0.3 nM
[4]
  body weight gain (in words): significant body weight gain
[3]; Table IV
  RAT IV ED50: 1.67 µg

## rhGH: Recombinant human growth hormone (Lot R9092AX, Genentech Inc.)
[5]; [10]
  body weight gain: 13.6 ± 2.5 g
[5]; rat, in vivo
  blood glucose: 725±30 mg %
  fasting blood glucose: 504±38 mg %
  serum insulin: 48 ± 6 ng/mL

## GHRH: Rat GHRH (1-43), growth hormone releasing hormone, positive control (HADAIFTSSYRRILGQLYARKLLHEIMNRQQGERNQEQRSRFN; Somatoliberin; UniProt P09916 31-73, looked up) [reference compound]
[4]
  body weight gain (in words): significant body weight gain
[2]
  GH response compared with control: mild GH response
[6]; 14 d infusion
  epiphyseal plate width: no statistically significant increase
  pituitary and kidney weight: not affected
[6]; GHRH 600 μg/day, 14 d infusion
  liver weight (in words): significantly increased
[6]; high dose 100 μg/day, GHRH 600 μg/day
  heart weight compared to excipient: increased
[6]; [11]
  spleen weight: 624 ± 23 mg
  thymus weight: 575 ± 39 mg
[6]; sc minipump 14 days, (inip) b b F K-NH2 4, 20, 100 μg/d, GHRH 600 μg/d, 90 day old female rats
  body weight gain compared to excipient: significant body weight and organ weight gain

## NCCCC[C@H](NC(=O)[C@H](Cc1ccccc1)NC(=O)[C@@H](Cc1ccc2ccccc2c1)NC(=O)[C@@H](Cc1ccc2ccccc2c1)NC(=O)C1CCNCC1)C(N)=O (stereo in doubt) [(inip) b b F K amide, (inip)-DβNal-DβNal-Phe-Lys-amide]
[5]; rat, in vivo
  blood glucose: 542±37 mg %

## O=C(N[C@H](Cc1ccc2ccccc2c1)C(=O)N[C@@H](CO)Cc1c[nH]c2ccccc12)C1CCNCC1 [(inip) b wol, (inip)-DβNal-(D-Tryptophanol)]
[1]; [7]
  EC50: 3.9 nM
[1]; [8]
  EC50: 10.6 ± 6.2 nM
[2]
  GH response compared with control: significantly greater than control
  GH release in combination with GHRH: synergistic
  GH release in combination with GHRP-6: not synergistic
  GH release in the presence of 20 nM somatostatin: totally suppressed
  GH release after sequential 15 min incubations with fresh compound (desensitization): no significant release of GH
[3]; Table V
  RAT IV ED50: 0.8 µg

## NC(=O)[C@H](Cc1ccccc1)NC(=O)[C@@H](Cc1ccc2ccccc2c1)NC(=O)[C@@H](Cc1ccc2ccccc2c1)NC(=O)C1CCNCC1 [(inip) b b F amide, (inip)-DβNal-DβNal-Phe-amide] (H-[Inp][d2Nal][d2Nal]F-NH2)
[1]; [9]
  EC50: 0.28 nM
[4]
  body weight gain (in words): significant body weight gain
[4]; in 7 days, 50 μg/dose twice daily sc
  weight gain: 36 ± 8 g
[3]; Table IV
  RAT IV ED50: 1.7 µg

## rhIGF-1: Recombinant human insulin-like growth factor-1
[5]; [10]
  body weight gain: 21.5 ± 0.7 g
[5]; day 24, GHRP 100 μg/d, rhIGF-1 758 μg/d
  body weight gain: 232 ± 2 g
[5]; rat, in vivo
  blood glucose: 1774 mg %
  serum insulin: 8 ± 1 ng/mL

## C[C@H](NC(=O)[C@@H](Cc1ccc2ccccc2c1)NC(=O)[C@@H](C)N)C(=O)N[C@@H](Cc1c[nH]c2ccccc12)C(=O)N[C@H](Cc1ccccc1)C(=O)N[C@@H](CCCCN)C(N)=O [GHRP 2, D Ala-D βNal-Ala-Trp-D Phe-Lys-NH2, reference compound] (H-[dA][d2Nal]AW[dF]K-NH2)
[1]; read-out: “Pit” Cell EC50, Table II, prior art compounds, GH release, 15 min incubation
  EC50: 1 nM
[3]; Table II, iv tail vein injection, anesthetized weanling female rats
  Rat IV ED50: 0.35 µg

## NC(=O)C[C@H](Cc1ccccc1)NC(=O)[C@@H](Cc1ccc2ccccc2c1)NC(=O)[C@@H](Cc1ccc2ccccc2c1)NC(=O)C1CCNCC1 [(inip) b b hcF amide, (inip)-DβNal-DβNal-(3(S)-3-benzyl-β-Ala)-amide] (H-[Inp][d2Nal][d2Nal][β3hF]-NH2)
[1]; [9]
  EC50: 0.2 nM
[3]; Table IV
  RAT IV ED50: 2.5 µg

## CN(C(=O)CCCCN)C(Cc1ccc2ccccc2c1)C(=O)N[C@H](Cc1ccc2ccccc2c1)C(=O)N[C@@H](Cc1ccccc1)C(=O)NC(CCCCN)C(N)=O (stereo partly drawn) [(Ava) nmb b F K amide, (5-aminovaleryl)-(N-Me-DβNal)-DβNal-Phe-Lys-amide] (H-[Ava][ξNMe2Nal][d2Nal]F[ξK]-NH2)
[1]; [12]
  EC50: 1.8 nM
[3]; Table III
  RAT IV ED50: 0.4 µg

## C[C@@H](N)C(=O)N[C@H](Cc1ccc2ccccc2c1)C(=O)N[C@H](Cc1ccc2ccccc2c1)C(=O)N[C@@H](Cc1ccccc1)C(=O)N[C@@H](CCCCN)C(N)=O [a b b F K amide] (H-[dA][d2Nal][d2Nal]FK-NH2)
[1]; [12]
  EC50: 3.5 nM
[3]; Table III
  RAT IV ED50: 10 µg

## COC(=O)[C@H](Cc1ccccc1)NC(=O)[C@@H](Cc1ccc2ccccc2c1)NC(=O)[C@@H](Cc1ccc2ccccc2c1)N(C)C(=O)C1CCNCC1 [(inip) nmb b F Me ester] (H-[Inp][dNMe2Nal][d2Nal]F-OMe)
[1]; [9]
  EC50: 1.4 nM
[3]; Table IV
  RAT IV ED50: 10 µg
